Assays:
Parameters in all cases: key: 0: little difference in the degree of germination or growth between the treated plants and the untreated plants at the time of examination; 10: the treated plants died completely or their germination or growth was completely inhibited
barnyardgrass [1] = experiment: Test Example 3: foliar treatment on upland field (Table 4); format: in vivo, Echinochloa crus-galli; details: 125 g/ha active ingredient, examined 16 days after application, index 0-10
Method: (§1) In the examples, the compounds are identified by the Compound Numbers as in Tables 1 to 3. […] A cylindrical plastic pot having a diameter of 10 cm and a depth of 10 cm was filled with soil and seeded with ivyleaf momingglory, velvetleaf and barnyardgrass. These test plants were grown in a greenhouse for 10 days. Then each of compounds listed below was formulated into an emulsifiable concentrate according to Formulation Example 2 and then diluted to the prescribed amount with water containing a spreading agent and the dilution was uniformly sprayed over the foliage of the test plants with sprayer at a rate of 1000 liters per hectare. After the application, the test plants were grown in the greenhouse for 16 days, and the herbicidal activity were determined.

barnyardgrass [2] = experiment: Test Example 4: soil surface treatment on upland field (Table 5); format: in vivo, Echinochloa crus-galli; details: 500 g/ha active ingredient, examined 12 days after application, index 0-10
Source text: (§2) In the examples, the compounds are identified by the Compound Numbers as in Tables 1 to 3. […] A cylindrical plastic pot having a diameter of 10 cm and a depth of 10 cm was filled with soil and seeded ivyleaf morningglory, velvetleaf and barnyardgrass. Then each of compounds listed below was formulated into an emulsifiable concentrate according to Formulation Example 2 and then diluted to the prescribed amount with water and dilution was uniformly sprayed over the surface of the soil with sprayer at the rate of 1000 liters per hectare. After the application, the test plants were grown in a greenhouse for 12 days, and the herbicidal activity was examined.

ivyleaf morningglory [3] = experiment: as above; format: in vivo, Ipomoea hederacea; details: 500 g/ha active ingredient, examined 12 days after application, index 0-10
Source text: as §2

velvetleaf [4] = experiment: Test Example 3: foliar treatment on upland field (Table 4); format: in vivo, Abutilon theophrasti; details: 125 g/ha active ingredient, examined 16 days after application, index 0-10
Method: as §1

velvetleaf [5] = experiment: Test Example 4: soil surface treatment on upland field (Table 5); format: in vivo, Abutilon theophrasti; details: 500 g/ha active ingredient, examined 12 days after application, index 0-10
Source text: as §2

large crabgrass = experiment: Test Example 5: foliar treatment on upland field (Table 6); format: in vivo, Digitaria sanguinalis; details: 125 g/ha, 19 days after application, index 0 to 10
Method: In the examples, the compounds are identified by the Compound Numbers as in Tables 1 to 3. […] A pot for plug seedlings seeded with large crabgrass. The test plant was grown in a greenhouse for 14 days, then transplanted into a plastic pot having an area of 17×12 cm^2 and a depth of 7 cm, and further the test plants were grown in the greenhouse for 8 days. Then each of compounds listed below was formulated into an emulsifiable concentrate according to Formulation Example 2 and then diluted to the prescribed amount with water containing a spreading agent and the dilution was uniformly sprayed over the foliage of the test plants with sprayer at a rate of 1000 liters per hectare. After the application, the test plants were grown in the greenhouse for 19 days, and the herbicidal activity were determined.

ivyleaf morningglory [6] = experiment: Test Example 3: foliar treatment on upland field (Table 4); format: in vivo, Ipomoea hederacea; details: 125 g/ha active ingredient, examined 16 days after application, index 0-10
Method: as §1

Row | SMILES | Herbicidal effect Barnyardgrass (barnyardgrass [1]) | Herbicidal effect Barnyardgrass (barnyardgrass [2]) | Herbicidal effect Ivyleaf morningglory (ivyleaf morningglory [3]) | Herbicidal effect Velvetleaf (velvetleaf [4]) | Herbicidal effect Velvetleaf (velvetleaf [5]) | Herbicidal effect Large crabgrass (large crabgrass) | Herbicidal effect Ivyleaf morningglory (ivyleaf morningglory [6])
1 | CCOC(=O)C(C)Oc1ccc(COc2cc(-n3c(=O)cc(C(F)(F)F)n(C)c3=O)c(F)cc2Cl)cc1 (stereo not shown) [Compound 1-2, Ethyl 2-[4-({2-chloro-4-fluoro-5-[3-methyl-2,6-dioxo-4-(trifluoromethyl)-1,2,3,6-tetrahydropyrimidine-1-yl]phenoxy}methyl)phenoxy]propionate] | 10 | 10 | 10 | 10 | 10 | 10 | 10
2 | COC(=O)C(C)Oc1ccc(C(C)Oc2cc(-n3c(=O)cc(C(F)(F)F)n(C)c3=O)c(F)cc2Cl)cc1 (stereo not shown) [Compound 1-21, Methyl 2-[4-(1-{2-chloro-4-fluoro-5-[3-methyl-2,6-dioxo-4-(trifluoromethyl)-1,2,3,6-tetrahydropyrimidine-1-yl]phenoxy}ethyl)phenoxy]propionate] | 10 | 10 | 10 | 10 | 10 | 10 | 10
3 | CCOC(=O)C(C)Oc1ccc(COc2cc(-n3c(=O)cc(C(F)(F)F)n(C)c3=O)c(F)cc2Cl)cc1Cl (stereo not shown) [Compound 1-42, Ethyl 2-[2-chloro-4-({2-chloro-4-fluoro-5-[3-methyl-2,6-dioxo-4-(trifluoromethyl)-1,2,3,6-tetrahydropyrimidine-1-yl]phenoxy}methyl)phenoxy]propionate] | 10 | 8 | 10 | 10 | 10 | 10 | 10
4 | COC(=O)C(C)Oc1ccc(COc2cc(-n3c(=O)cc(C(F)(F)F)n(C)c3=O)c(F)cc2Cl)cc1OC (stereo not shown) [Compound 1-61, Methyl 2-[4-({2-chloro-4-fluoro-5-[3-methyl-2,6-dioxo-4-(trifluoromethyl)-1,2,3,6-tetrahydropyrimidine-1-yl]phenoxy}methyl)-2-methoxyphenoxy]propionate] | 10 | 10 | 10 | 10 | 10 | 10 | 10
5 | COC(=O)C(C)Oc1ccc(COc2cc(-n3c(=O)cc(C(F)(F)F)n(C)c3=O)c(F)cc2Cl)cc1C (stereo not shown) [Compound 1-101, Methyl 2-[4-({2-chloro-4-fluoro-5-[3-methyl-2,6-dioxo-4-(trifluoromethyl)-1,2,3,6-tetrahydropyrimidine-1-yl]phenoxy}methyl)-2-methylphenoxy]propionate] | 10 | 10 | 10 | 10 | 10 | 10 | 10
6 | COC(=O)C(C)Oc1c(Br)cc(COc2cc(-n3c(=O)cc(C(F)(F)F)n(C)c3=O)c(F)cc2Cl)cc1OC (stereo not shown) [Compound 1-161, Methyl 2-[2-bromo-4-({2-chloro-4-fluoro-5-[3-methyl-2,6-dioxo-4-(trifluoromethyl)-1,2,3,6-tetrahydropyrimidine-1-yl]phenoxy}methyl)-6-methoxyphenoxy]propionate] | 8 | 4 | 7 | 10 | 10 | 10 | 10
7 | CCC(Oc1cc(-n2c(=O)cc(C(F)(F)F)n(C)c2=O)c(F)cc1Cl)c1ccc(OC(C)C(=O)OC)cc1 (stereo not shown) [Compound 1-213, Methyl 2-[4-(1-{2-chloro-4-fluoro-5-[3-methyl-2,6-dioxo-4-(trifluoromethyl)-1,2,3,6-tetrahydropyrimidine-1-yl]phenoxy}propyl)phenoxy]propionate] | 10 | 10 | 10 | 10 | 10 | 10 | 10
8 | COC(=O)C(C)Oc1ccc(C(C#N)Oc2cc(-n3c(=O)cc(C(F)(F)F)n(C)c3=O)c(F)cc2Cl)cc1 (stereo not shown) [Compound 1-226, Methyl 2-{4-[{2-chloro-4-fluoro-5-[3-methyl-2,6-dioxo-4-(trifluoromethyl)-1,2,3,6-tetrahydropyrimidine-1-yl]phenoxy}(cyano)methyl]phenoxy}propionate] | 10 | 9 | 10 | 10 | 10 | 10 | 10
9 | COC(=O)C(C)Oc1c(OC)cc(COc2cc(-n3c(=O)cc(C(F)(F)F)n(C)c3=O)c(F)cc2Cl)cc1OC (stereo not shown) [Compound 1-238, Methyl 2-[4-({2-chloro-4-fluoro-5-[3-methyl-2,6-dioxo-4-(trifluoromethyl)-1,2,3,6-tetrahydropyrimidine-1-yl]phenoxy}methyl)-2,6-dimethoxyphenoxy]propionate] | 9 | 8 | 10 | 10 | 10 | 10 | 10
10 | COC(=O)C(C)Oc1ccc(COc2cc(-n3c(=O)cc(C(F)(F)F)n(C)c3=O)c(F)cc2Cl)c(F)c1 (stereo not shown) [Compound 1-242, Methyl 2-[4-({2-chloro-4-fluoro-5-[3-methyl-2,6-dioxo-4-(trifluoromethyl)-1,2,3,6-tetrahydropyrimidine-1-yl]phenoxy}methyl)-3-fluorophenoxy]propionate] | 10 | 10 | 10 | 10 | 10 | 10 | 10
